This assay has as its target T1, MAT2A (S-adenosylmethionine synthase isoform type-2) (Homo sapiens, UniProt P31153).
T1 construct: Recombinant human MAT2A (Addgene plasmid #53648), expressed in E. coli BL21 (DE3) Rosetta
Put plainly: MAT2A enzymatic assay with pre-incubation, phosphate colorimetric readout. The assay is classed as biochemical.

Molecules are shown by their SMILES.

T1 sequence (P31153 whole entry, canonical isoform): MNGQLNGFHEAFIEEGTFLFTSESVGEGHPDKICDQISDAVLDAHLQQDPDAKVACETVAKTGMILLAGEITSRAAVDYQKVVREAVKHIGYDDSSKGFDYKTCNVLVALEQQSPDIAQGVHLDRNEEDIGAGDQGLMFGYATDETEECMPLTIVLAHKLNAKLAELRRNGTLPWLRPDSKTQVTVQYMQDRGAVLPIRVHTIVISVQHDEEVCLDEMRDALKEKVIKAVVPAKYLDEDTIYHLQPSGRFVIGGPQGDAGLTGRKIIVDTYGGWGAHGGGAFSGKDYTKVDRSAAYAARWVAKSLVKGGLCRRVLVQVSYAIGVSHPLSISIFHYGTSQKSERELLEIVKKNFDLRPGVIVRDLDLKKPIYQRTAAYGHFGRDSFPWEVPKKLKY

As a reminder, the IC50 is the concentration at which inhibition is half-maximal. Higher therefore signals lower potency. In turn, `C1N2CN3CN1CP(C2)C3.Cc1ccccc1.[Cl][Ru][Cl]` [RAPTA-T] showed an IC50 of 107 ± 13 µM.

For the origin of these results see PMC5431558, “Expression proteomics study to determine metallodrug targets and optimal drug combinations” (Scientific Reports, 2017).
